The record followed here is ChEMBL document CHEMBL4196225, “Precedence and Promise of Covalent Inhibitors of EGFR and KRAS for Patients with Non-Small-Cell Lung Cancer” (ACS Med Chem Lett, 2018).

The subject of assay [1] is GTPase KRas (Homo sapiens), P01116 [G12C]. Put plainly: Ratio of Kinact to Ki for hexahistidine-tagged recombinant human KRas G12C mutant expressed in Escherichia coli BL21 (DE3).
The next assay deals with GTPase KRas (Homo sapiens, UniProt P01116, G12C). In words: Binding affinity to hexahistidine-tagged recombinant human KRas G12C mutant expressed in Escherichia coli BL21 (DE3) in presence of GDP.
Chain of GTPase KRas (P01116 whole entry G12C): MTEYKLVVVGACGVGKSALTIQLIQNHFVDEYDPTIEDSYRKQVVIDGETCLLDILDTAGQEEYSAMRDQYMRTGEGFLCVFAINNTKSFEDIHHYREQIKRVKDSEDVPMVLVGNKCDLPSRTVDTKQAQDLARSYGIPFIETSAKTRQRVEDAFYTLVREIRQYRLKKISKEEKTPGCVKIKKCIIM
For assay [2], the system named is GTPase KRas (Homo sapiens), P01116 [G12C]. In words: Binding affinity to hexahistidine-tagged recombinant human KRas G12C mutant expressed in Escherichia coli BL21 (DE3) assessed as first-order rate constant in presence of GDP.
Chain of GTPase KRas (Homo sapiens), P01116 [G12C] (P01116 whole entry G12C): as above

Usually Ki stands for a dissociation constant, usually derived from enzyme kinetics or from competition with a known ligand.

Take `C=CC(=O)N1CCN(c2ncnc3c(F)c(-c4c(O)cccc4F)c(Cl)cc23)CC1` (atropisomer S): the Ratio in assay [1] is 1100 M⁻¹ s⁻¹. For the same molecule, at GTPase KRas, the Ki is more than 64 µM. The Kinact in assay [2] is more than 0.066 s⁻¹.
